The values below come from patent US5639745A, “Fused-bicyclic lactams as interleukin-1β converting enzyme inhibitors” (Sanofi, priority 1995, dated 1997).

For data set [1], the system named is chronic myelogenous leukemia cells. The settings on record: cells removed from chronic myelogenous leukemia patients; cited from earlier work.
Data set [2] relates to IL-1 receptor. The settings on record: open-label human trial, subcutaneous; cited from earlier work.
Data set [3] relates to acute myelogenous leukemia cells. The settings on record: cited from earlier work.
The subject of data set [4] is IL-1 receptor. The settings on record: PG-APS arthritis, rats; cited from earlier work.
Data set [5] relates to IL-1 receptor. To be noted: colitis model; cited from earlier work.
For data set [6], the system named is IL-1 receptor. To be noted: cited from earlier work.
For data set [7], the target named is T1, ICE (IL-1β protease) (Homo sapiens, UniProt P29466).
T1 sequence (P29466 120-297 limits assumed): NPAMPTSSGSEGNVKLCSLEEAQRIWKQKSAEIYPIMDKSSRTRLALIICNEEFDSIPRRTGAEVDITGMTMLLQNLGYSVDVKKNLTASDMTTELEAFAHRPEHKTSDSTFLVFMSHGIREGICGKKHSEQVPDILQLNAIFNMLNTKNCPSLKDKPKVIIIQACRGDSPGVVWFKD
T1 sequence (P29466 317-404 limits assumed): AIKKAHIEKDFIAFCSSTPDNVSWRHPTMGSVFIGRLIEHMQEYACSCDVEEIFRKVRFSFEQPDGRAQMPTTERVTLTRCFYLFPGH
Description: modified in vitro enzyme assay, reversible Ki* for ICE (Succinyl-Tyr-Val-Ala-Asp-amino methylcoumarin substrate). In kind it is biochemical. To be noted: aldehydes. As for the experimental part: Second order rates of inactivation were obtained by using the enzyme assay described in Dolle, R. E.; et al., J. Med Chem. (1994), 37, 563. […] In the case of these reversible inhibitors, the in vitro assay was modified to obtain the reversible Ki * as follows:
Ki * values for reversible inhibitors were determined by preincubating ICE with various concentrations of inhibitor in 10 mM HEPES (a common laboratory buffer; pH 7.5), 25% glycerol, 1 mM dithiothreitol for 30 minutes at 37 ° C. in a polystyrene 96-well plate. Remaining ICE activity was measured by adding 10 uM Succinyl-Tyrosine-Valine-Alanine-Aspartic acid-amino methylcoumarin (Bachem Bioscience, Inc.) and monitoring the increase in fluorescence at 37° C. using a Fluoroskan II fluorescence plate reader. The Ki * was calculated from a plat of 1/v versus I as described previously (Morrison, J. F. and Cleland, W. W. (1983) Biochemistry 22, 5507-5513.

The test system of data set [8] is mature IL-1β release from human monocytes. Description: human monocyte pulse chase assay, inhibition of release of mature IL-1β (called In Vivo Assay). The settings on record: human monocytes stimulated with fixed S. aureus. In kind it is cell-based. As for the experimental part: In vivo inhibition (IC50) was determined as follows:
Human monocytes were isolated from heparinized leukopheresis units obtained through Biological Specialty Corporation (Lansdale, Pa.). Monocytes were purified by Ficoll-Hupaque (Pharmacia Fine Chemicals, Piscataway, N.J.) gradient centrifugation and more than 95% pure monocyte populations obtained by centrifugal elutriation. The assay was performed on duplicate samples of freshly isolated human monocytes, cultured in suspension at 37° C. and rotated gently in conical bottom polypropylene tubes (Sardstedt Inc., Princeton, N.J.). Human monocytes at a concentration of 5×10^6 cells/mL were resuspended in 1 mL of RPMI 1640 (a common tissue buffer from M. A. Bioproducts, Walkersville, Md.) containing 1% fetal calf serum (FCS) (HyClone, Logan, Utah) and 50 μg/mL gentamycin (Gibco, Grand Island, N.Y.). The cells were treated either with a compound of the invention (i.e. test compound) or with a non-inhibitor (control compound, typically 0.03% DMSO) for 15 minutes and then activated with 0.01% fixed Staphylococcus aureus (The Enzyme Center, Malden, Mass.) for 1 hour. The cells were then centrifuged and resuspended in 1 mL of cysteine, methionine-free RPMI media containing 1% dialyzed FCS (Hyclone). The cells were pretreated with a test compound or control compound for 15 minutes after which 0.01% fixed S. aureus plus 100 μCi Tran 35-S label (ICN, Irvine, Calif.) was added and the cells incubated at 37° C. for 1 hour. After incubation, cells were centrifuged, washed once in phosphate buffer saline and resuspended in 1 mL RPMI containing 1% fetal calf serum. The cells were again pretreated with a test or control compound for 15 minutes and then 0.01% S. aureus for 2 hours. At the end of the incubation, cells were centrifuged and supernates saved for immunoprecipitation. Cells were washed once in phosphate buffer saline and then lysed in RIPA, a continuous cell media buffer containing 2 mM phenylmethylsulfonyl fluoride, 10 mM iodoacetate, 1 μg/mL pepstatin A, 1 μg/mL leupeptin and 0.5 TIU aprotinin.
For the immunoprecipitations, an equal volume of 1% dry milk in RIPA buffer plus 50 μL of resuspended protein A sepharose CL-4B (Pharmacia, Piscataway, N.Y.) was added to supernates and 1 mL of 4% dry milk containing protein A sepharose CL-4B to cell lysates and samples rotated for 30 minutes at 4° C. Beads were then centrifuged down, samples transferred to fresh tubes and incubated overnight with 40 μg rabbit anti-human IL-1β polyclonal antibody (Genzyme, Cambridge, Mass.). The IL-1β proteins were then precipitated with 70 μL protein A sepharose, resuspended in 60 μL SDS sample buffer and run on 15% SGD-PAGE gels. Autoradiography was performed on dried gels and the amount of radioactivity (counts per minute, cpm) quantitated using a Betascope 603 analyzer.
In the monocyte pulse chase assay, each test parameter was run in duplicate. Data was collected from the Beta Scope using a personal computer, then transferred to the VAX system for calculation of mean cpm and standard deviation of the mean. When test compounds were evaluated, the percent inhibition of release of mature IL-1β was calculated as follows:
100×[1-(cells treated with stimuli+test compound-unstimulated cells)/(cells treated with stimuli+control compound-unstimulated cells)]
These % inhibition values were then used to calculate IC50 value for each compound. Since the human monocyte pulse chase assay uses primary cells from different donors, each test compound was run in 2-3 separate experiments, using monocytes from 2-3 different donors.

For IL-1ra: IL-1 receptor antagonist, in data set [1], the colony growth inhibition entry was “inhibit colony growth”. Besides, the “efficacy in Rheumatoid Arthritis” value in data set [2] is listed as “shows efficacy”. Moreover, the blast proliferation inhibition result in data set [3] is “Inhibition of Acute Myelogenous Leukemia Blast Proliferation”. Further, in data set [4], the joint swelling entry is listed as “supresses joint swelling”. Moreover, the “tissue necrosis and number of inflammatory cells in the colon” value in data set [5] is “reduced tissue necrosis and the number of inflammatory cells in the colon”.
As for “Antril: The IL-1 receptor antagonist, Antril (Synergen)”, the “joint swelling and disease activity” value in data set [6] (after three weeks of daily treatment, subcutaneous) is “decrease in joint swelling and less disease activity”. Further, the antiinflammatory activity entry in data set [6] (patients with active rheumatoid arthritis, subcutaneous 20, 70 and 200 mg) is “significant antiinflammatory activity”. For the same compound, the “effectiveness by dosing frequency” value in data set [6] (subcutaneous 20, 70 and 200 mg) is “most effective when taken daily”.
The IC50 is the concentration that gives 50% inhibition. As for `O=C[C@H](CC(=O)O)NC(=O)[C@@H]1CCCN2C(=O)CC[C@H](NC(=O)c3ccccc3)C(=O)N12` [Example 21], in data set [7], the “mode of inhibition / binding kinetics” value is “reversible inhibitors and display slow binding kinetics”. The compound also had an IC50 in data set [8] of less than 10 µM.
On to `O=C[C@H](CC(=O)O)NC(=O)[C@@H]1CCCN2C(=O)CC[C@H](NC(=O)c3ccc(OCC(=O)O)cc3)C(=O)N12` [Example 22], for which, in data set [7], the “mode of inhibition / binding kinetics” value was “reversible inhibitors and display slow binding kinetics”. In data set [8], the IC50 was less than 10 µM.
With `O=C[C@H](CC(=O)O)NC(=O)[C@@H]1CCCN2C(=O)CC[C@H](NC(=O)OCc3ccccc3)C(=O)N12` [Example 2], the “mode of inhibition / binding kinetics” value in data set [7] is “reversible inhibitors and display slow binding kinetics”. This compound showed an IC50 in data set [8] of less than 10 µM.
